Reference: US20100267561A1, “HERBICIDAL PYRIDAZINONE DERIVATIVES” (priority 2007, published 2010)

Columns and labels:
Assay type in all cases: in vivo
[1] = tested on: barnyardgrass (Echinochloa crus-galli); test: Test A pre-/postemergence plant response
Summary of the method: (§1)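 Seeds sown in loam–sand blend; test chemicals in non-phytotoxic solvent with surfactant applied preemergence as directed soil spray and, concurrently, postemergence to plants 2–10 cm tall at one- to two-leaf stage. Greenhouse ~10 days, then visual injury rating vs untreated controls on 0–100 scale (0 = no effect, 100 = complete control).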

corn (Zea mays) = test: Test A pre-/postemergence plant response
Summary of the method: as §1

[2] = tested on: giant foxtail (Setaria faberi); test: Test A pre-/postemergence plant response
Summary of the method: as §1

[3] = tested on: large crabgrass (Digitaria sanguinalis); test: Test A pre-/postemergence plant response
Summary of the method: as §1

[4] = tested on: morningglory (Ipomoea coccinea); test: Test A pre-/postemergence plant response
Summary of the method: as §1

[5] = tested on: pigweed (Amaranthus retroflexus); test: Test A pre-/postemergence plant response
Summary of the method: as §1

[6] = tested on: velvetleaf (Abutilon theophrasti); test: Test A pre-/postemergence plant response
Summary of the method: as §1

[7] = tested on: wheat (Triticum aestivum); test: Test A pre-/postemergence plant response
Summary of the method: as §1

[8] = tested on: green foxtail (Setaria viridis); test: Test B pre-/postemergence plant response
Text: (§2) Seeds of plant species selected from blackgrass (Alopecurus myosuroides), downy bromegrass (Bromus tectorum), green foxtail (Setaria viridis), Italian ryegrass (Lolium multiflorum), wheat (Triticum aestivum), wild oat (Avena fatua), catchweed bedstraw (Galium aparine), bermudagrass (Cynodon dactylon), surinam grass (Brachiaria decumbens), cocklebur (Xanthium strumarium), corn (Zea mays), large crabgrass (Digitaria sanguinalis), woolly cupgrass (Eriochloa villosa), giant foxtail (Setaria faberii), goosegrass (Eleusine indica), johnsongrass (Sorghum halepense), kochia (Kochia scoparia), lambsquarters (Chenopodium album), morningglory (Ipomoea coccinea), eastern black (E.B.) nightshade (Solanum ptycanthum), yellow nutsedge (Cyperus esculentus), pigweed (Amaranthus retroflexus), common ragweed (Ambrosia elation), Russian thistle (Salsola iberica), soybean (Glycine max), common (oilseed) sunflower (Helianthus annuus), and velvetleaf (Abutilon theophrasti) were planted and treated preemergence with test chemicals formulated in a non-phytotoxic solvent mixture which included a surfactant.
(§3) At the same time, plants selected from these crop and weed species and also winter barley (Hordeum vulgare), canarygrass (Phalaris minor), chickweed (Stellaria media) and windgrass (Apera spica-venti) were treated with postemergence applications of some of the test chemicals formulated in the same manner. Plants ranged in height from 2 to 18 cm (1- to 4-leaf stage) for postemergence treatments.
(§4) Plant species in the flooded paddy test consisted of rice (Oryza sativa), umbrella sedge (Cyperus difformis), ducksalad (Heteranthera limosa) and barnyardgrass (Echinochloa crus-galli) grown to the 2-leaf stage for testing. At time of treatment, test pots were flooded to 3 cm above the soil surface, treated by application of test compounds directly to the paddy water, and then maintained at that water depth for the duration of the test. Treated plants and controls were maintained in a greenhouse for 13 to 15 days, after which time all species were compared to controls and visually evaluated. Plant response ratings, summarized in Table B, are based on a scale of 0 to 100 where 0 is no effect and 100 is complete control. A dash (-) response means no test result.

[9] = tested on: johnsongrass (Sorghum halepense); test: Test B pre-/postemergence plant response
Text: as §2, §3, §4

[10] = tested on: wheat (Triticum aestivum); test: Test B pre-/postemergence plant response
Text: as §2, §3, §4

[11] = Postemergence, 125 g ai/ha, 0 to 100 scale, 0 no effect, 100 complete control
[12] = Postemergence, 500 g ai/ha, 0 to 100 scale, 0 no effect, 100 complete control
[13] = Preemergence, 125 g ai/ha, 0 to 100 scale (0 no effect, 100 complete control)
[14] = Preemergence, 500 g ai/ha, 0 to 100 scale (0 no effect, 100 complete control)
[15] = Postemergence, 31 g ai/ha, scale 0 to 100, 0 no effect, 100 complete control
[16] = Postemergence, 62 g ai/ha, scale 0 to 100
[17] = Postemergence, 125 g ai/ha, scale 0 to 100
[18] = Postemergence, 250 g ai/ha, scale 0 to 100
[19] = Preemergence, 31 g ai/ha, 0 to 100 scale, 0 no effect, 100 complete control
[20] = Preemergence, 62 g ai/ha, scale 0 to 100
[21] = Preemergence, 125 g ai/ha, scale 0 to 100
[22] = Preemergence, 250 g ai/ha, scale 0 to 100

SMILES: Cc1cc(-c2ccc(Br)cc2)nn1-c1c(O)cnn(C)c1=O [Compound 4]
- Plant response rating, Barnyardgrass [1, 11]: 100
- Plant response rating, Barnyardgrass [1, 12]: 100
- Plant response rating, Barnyardgrass [1, 13]: 100
- Plant response rating, Barnyardgrass [1, 14]: 100
- Plant response rating, Corn (corn (Zea mays); [11]): 90
- Plant response rating, Corn (corn (Zea mays); [12]): 100
- Plant response rating, Corn (corn (Zea mays); [13]): 70
- Plant response rating, Corn (corn (Zea mays); [14]): 90
- Plant response rating, Foxtail, Giant [2, 11]: 100
- Plant response rating, Foxtail, Giant [2, 12]: 100
- Plant response rating, Foxtail, Giant [2, 13]: 100
- Plant response rating, Foxtail, Giant [2, 14]: 100
- Plant response rating, Crabgrass, Large [3, 11]: 100
- Plant response rating, Crabgrass, Large [3, 12]: 100
- Plant response rating, Crabgrass, Large [3, 13]: 100
- Plant response rating, Crabgrass, Large [3, 14]: 100
- Plant response rating, Morningglory [4, 11]: 0
- Plant response rating, Morningglory [4, 12]: 20
- Plant response rating, Morningglory [4, 13]: 0
- Plant response rating, Morningglory [4, 14]: 0
- Plant response rating, Pigweed [5, 11]: 0
- Plant response rating, Pigweed [5, 12]: 20
- Plant response rating, Pigweed [5, 13]: 0
- Plant response rating, Pigweed [5, 14]: 0
- Plant response rating, Velvetleaf [6, 11]: 20
- Plant response rating, Velvetleaf [6, 12]: 60
- Plant response rating, Velvetleaf [6, 13]: 0
- Plant response rating, Velvetleaf [6, 14]: 10
- Plant response rating, Wheat [7, 11]: 60
- Plant response rating, Wheat [7, 12]: 80
- Plant response rating, Wheat [7, 13]: 70
- Plant response rating, Wheat [7, 14]: 100
- Plant response rating, Foxtail, Green [8, 15]: 95
- Plant response rating, Foxtail, Green [8, 16]: 100
- Plant response rating, Foxtail, Green [8, 17]: 100
- Plant response rating, Foxtail, Green [8, 18]: 100
- Plant response rating, Foxtail, Green [8, 19]: 100
- Plant response rating, Foxtail, Green [8, 20]: 100
- Plant response rating, Foxtail, Green [8, 21]: 100
- Plant response rating, Foxtail, Green [8, 22]: 100
- Plant response rating, Johnsongrass [9, 15]: 80
- Plant response rating, Johnsongrass [9, 17]: 100
- Plant response rating, Johnsongrass [9, 19]: 0
- Plant response rating, Johnsongrass [9, 20]: 30
- Plant response rating, Johnsongrass [9, 21]: 100
- Plant response rating, Johnsongrass [9, 22]: 100
- Plant response rating, Wheat [10, 15]: 90
- Plant response rating, Wheat [10, 16]: 100
- Plant response rating, Wheat [10, 17]: 100
- Plant response rating, Wheat [10, 18]: 100
- Plant response rating, Wheat [10, 19]: 60
- Plant response rating, Wheat [10, 20]: 95
- Plant response rating, Wheat [10, 21]: 100
- Plant response rating, Wheat [10, 22]: 100
